Measurements as given in the NIST ThermoML archive (doi:10.1021/je060271a).

Details: 323.14 K, Liquid, Vibrating tube method

CCCCCCC(=O)OCC(COC(=O)CCCCCC)(COC(=O)CCCCCC)COC(=O)CCCCCC [pentaerythritol tetraheptanoate]
Details | mass density [kg/m3]
141.6 kPa | 955.8
142.1 kPa | 955.7
142.7 kPa | 955.7
143.5 kPa | 955.7
146.5 kPa | 955.7
148.2 kPa | 955.7
149.1 kPa | 955.7
149.8 kPa | 955.7
150.7 kPa | 955.7
151.7 kPa | 955.7
160.6 kPa | 955.8
191.9 kPa | 955.7
198.5 kPa | 955.7
199.7 kPa | 955.7
201.6 kPa | 955.8
203.3 kPa | 955.6
206.3 kPa | 955.6
208.7 kPa | 955.6
211.5 kPa | 955.7
213.8 kPa | 955.8
216.2 kPa | 955.6
219 kPa | 955.8
222.1 kPa | 955.7
224.9 kPa | 955.7
228.5 kPa | 955.7
231.8 kPa | 955.6
234.6 kPa | 955.7
237.8 kPa | 955.7
248.7 kPa | 955.8
252.3 kPa | 955.7
256.9 kPa | 955.6
260.9 kPa | 955.8
269.9 kPa | 955.8
274.2 kPa | 955.7
279.5 kPa | 955.8
284.3 kPa | 955.8
289.2 kPa | 955.7
294.6 kPa | 955.8
300.8 kPa | 955.7
306.2 kPa | 955.9
313.2 kPa | 955.9
325.7 kPa | 955.8
332.1 kPa | 955.9
355.4 kPa | 955.9
382.3 kPa | 955.9
391.6 kPa | 956
402.9 kPa | 955.9
412.9 kPa | 955.8
423.9 kPa | 955.8
437.3 kPa | 955.8
478.1 kPa | 956
585.3 kPa | 955.9
606 kPa | 955.9
632.9 kPa | 956
657.4 kPa | 955.9
683.2 kPa | 956
747.4 kPa | 956.1
859.8 kPa | 956
901.9 kPa | 956.1
946 kPa | 956.2
1003.2 kPa | 956.3
1051.3 kPa | 956.3
1084.8 kPa | 956.4
1163.8 kPa | 956.3
1174 kPa | 956.4
1215.6 kPa | 956.4
1248.5 kPa | 956.5
1269 kPa | 956.4
1336.1 kPa | 956.5
1342 kPa | 956.5
1347.9 kPa | 956.5
1355 kPa | 956.5
1360.7 kPa | 956.6
1366.8 kPa | 956.5
1374.4 kPa | 956.5
1380.5 kPa | 956.5
1386.8 kPa | 956.6
1393.9 kPa | 956.6
1400.3 kPa | 956.5
1406.6 kPa | 956.7
1414.7 kPa | 956.6
1515.9 kPa | 956.7
1530.9 kPa | 956.7
1537.8 kPa | 956.7
1547 kPa | 956.7
1554.5 kPa | 956.7
1561.9 kPa | 956.7
1571 kPa | 956.8
1578.6 kPa | 956.7
1586.4 kPa | 956.6
1596.1 kPa | 956.6
1604 kPa | 956.7
1612.1 kPa | 956.7
1637.6 kPa | 956.7
1645.8 kPa | 956.8
1655.5 kPa | 956.8
1664.2 kPa | 956.7
1672.2 kPa | 956.7
1680.7 kPa | 956.8
1690.9 kPa | 956.8
1699.8 kPa | 956.8
1708.3 kPa | 956.8
1756.9 kPa | 956.8
1766.2 kPa | 956.7
1784.8 kPa | 956.7
1795.8 kPa | 956.8
1805 kPa | 956.9
1816.8 kPa | 956.8
1826.5 kPa | 956.8
1836.5 kPa | 956.8
1847 kPa | 956.8
1857.2 kPa | 957
